Reference: PMC7311426, “An amphipathic peptide with antibiotic activity against multidrug-resistant Gram-negative bacteria” (Nature Communications, 2020)
Residues, ends and D or L forms follow the SMILES beside them.

Key:
[1] = SPR binding to model membrane lipids; set-up: unit: 100 × RU/MW; conditions: mean of n = 3
Experimental: (§1) SPR experiments were performed on a Biacore T200 using an L1 sensor chip as previously described. Small unilamellar vesicles (SUVs) were prepared in PBS by sonication and extrusion. Lipids were dissolved in ethanol-free chloroform in 25 mL round-bottom flasks. 10% (mol/mol) of E. coli lipid A, diphosphoryl (Sigma-Aldrich, Cat # L5399) was added into 1,2-dimyristoyl-sn-glycero-3-phosphocholine (DMPC) (Auspep, Cat # 850345P) solution to make lipid A–DMPC mixtures, which were then deposited as a thin film by removal of the solvent (chloroform) under reduced pressure on a rotary evaporator and dried under high vacuum for at least 2 h. PBS was then added into each flask to give a 1 mM (DMPC) suspension, which was sonicated 5 min for five times. […] The SUVs were then injected into the flow cells of the L1 sensor chip for 2000 s at a low flow rate of 2 μL min^−1 to form a bilayer membrane model on the chip surface. Then, a series of peptide solutions (30–0.33 μM in 3-fold dilution), was injected across the flow cells at a flow rate of 30 μL min^−1, having an injection phase of 180 s, and a dissociation phase of 300 s. The binding responses (RU) were normalized by molecular weight (MW) of each peptide. The equation 100 × RU/MW was used for normalization.

[2] = SPR binding to model membrane lipids; set-up: species or system E. coli; conditions: for Binding to DMPC with lipid A versus DMPC alone (SPR): 1 µM and 10 µM, 100 × RU/MW at t = 180 s, n = 3, Student's t-test; for SPR response, Difference (Mean1 - Mean2): DMPC minus 10% lipid A-DMPC, multiple t-tests; for SPR response, Mean2 (10% lipid A-DMPC): mean of n = 3
Experimental: as §1

E. coli AID#172 [3] = assay type: in vivo, E. coli in NMRI mice
Experimental: (§2) Peritonitis and UTI murine models were performed at the Department of Microbiology & Infection Control, Statens Serum Institute, Copenhagen, Denmark, under approval by the National Committee of Animal Ethics, Denmark, and adhered to the standards of EU Directive 2010/63/EU. The mouse pneumonia model was performed by Evotec Ltd, United Kingdom, under UK Home Office Licenses and with local ethical committee clearance. All animal studies were contracted by Adenium Biotech ApS.
(§3) Peptides were prepared in Ringer’s acetate pH 6.0 (vehicle) at 34 mg mL^−1. Comparator antibiotics included meropenem (Meronem®, AstraZeneca), polymyxin B sulfate (Sigma) and tobramycin (Novartis).
The E. coli peritonitis in vivo model was conducted using an E. coli AID#172 strain in female NMRI mice (Harlan) that were rendered neutropenic by injecting 0.5 mL cyclophosphamide solution (Apodan®) intraperitoneally for 4 days (~200 mg kg^−1) and 1 day (~100 mg kg^−1) prior to inoculation of infection. At time −1 h, mice were inoculated intraperitoneally with 0.5 mL of 2 × 10^6 CFU mL^−1 E. coli AID#172 suspension in the lateral lower quadrant of the abdomen. […] CFU counts were determined from blood and peritoneal fluid at 0 and 5 h after treatment. The mice were anesthetized with Zoletil® and blood was collected by axillary cut down. The mice were killed by cervical dislocation, a total of 2 mL sterile saline was injected i.p. and the abdomen gently massaged before it was opened, fluid sampled with a pipette, and collected for CFU counts on agar.

E. coli DSA 443 ESBL = test: Murine urinary tract infection (UTI) model; assay type: in vivo, E. coli in OF-1 mice; conditions: Prism column statistics
Experimental: as §2, §3
The E. coli UTI in vivo model was prepared using an E. coli DSA 443 ESBL strain, in neutropenic outbred OF-1 female mice (Charles River, France). Starting 4 days before inoculation mice were given drinking water with 5% glucose. On day 0 mice were anaesthetized and inoculated with 50 μL bacterial suspension (1 × 10^9 CFU mL^−1) of E. coli DSA 443 ESBL, via a catheter in the urethra into the bladder. On days 1 and 2, mice were treated i.v. with vehicle (n = 18) or with twice-daily administrations of 5 mg kg^−1 AA139 (n = 12) or 40 mg kg^−1 meropenem (n = 12). Urine samples were taken on days 1–3 and on day 3 mice were killed and urine, kidneys, and bladder were collected for CFU counts on agar.

E. coli AID#172 [4] = assay type: in vivo, E. coli in NMRI mice; remark: listed apart in the source
Experimental: as §3
The E. coli thigh infection in vivo model was conducted using an E. coli AID#172 strain in female NMRI mice (Taconic) that were rendered neutropenic as above. At time −1 h, mice were inoculated intramuscularly in the quadriceps femoral muscle close to the femur of the left hind leg with 0.05 mL of a suspension of ~1–5 × 10^7 CFU mL^−1 of E. coli (fresh overnight colonies from 5% Horse Blood Agar plate suspended in sterile saline to ~10^8 CFU mL^−1, then diluted) with compound administered intravenously 1 and 12 h post infection (injection over 30 s with 10 mL kg^−1 of 0.6–15 mg kg^−1 AA139 or 5 mg kg^−1 polymyxin B). Colony counts were determined in thighs at 0 and 24 h post infection. The mice were killed by cervical dislocation, the skin was removed and the left hind leg from the hip joint to the hock was collected, cut into at least three parts and frozen at −80 °C. After thawing, the thighs were homogenized in 5 mL saline using a Dispomix® Drive. Each sample was then 10-fold diluted in saline and 20 μL spots were applied on 5% blood agar plates. All agar plates were incubated 18–24 h at 35 °C in ambient air.

[5] = 7-day DRF inhalation toxicity; conditions: for AUC(0-t) / Cmax: Mouse inhalation, TK dose 20 mg/kg
[6] = AA139 3.75 mg kg-1, Meropenem 40 mg kg-1, Dunnett's multiple comparisons test
[7] = MDR E. coli AID #172, AA139 3.75 mg kg-1, Meropenem 40 mg kg-1, mean of n = 3

colistin
SPR response, Mean1 (DMPC) ([1]; 1uM): 7.037 | SPR response, Mean1 (DMPC) ([1]; 10uM): 58.5213 | Binding to DMPC with lipid A versus DMPC alone (SPR) [2]: Significant difference | SPR response, Difference (Mean1 - Mean2) ([2]; 1uM): -12.5563 | SPR response, Mean2 (10% lipid A-DMPC) ([2]; 1uM): 19.5933 | SPR response, Difference (Mean1 - Mean2) ([2]; 10uM): -66.912 | SPR response, Mean2 (10% lipid A-DMPC) ([2]; 10uM): 125.433

C[C@@H](O)[C@H]1C(=O)N2C(C(=O)O)=C(S[C@@H]3CN[C@H](C(=O)N(C)C)C3)[C@H](C)[C@H]12 [Meropenem, meropenem, reference compound]
Change of CFU levels in peritoneal fluid and blood vs vehicle (E. coli AID#172 [3]; 40 mg kg^−1 i.v., not statistically significant): slight reduction | Blood 5hr, Mean Diff. vehicle vs. treatment (E. coli AID#172 [3]; [6]): 0.6733 | PF 5hr, Mean Diff. vehicle vs. treatment (E. coli AID#172 [3]; [6]): 0.08333 | Blood 5hr bacterial load, Mean (E. coli AID#172 [3]; [7]): 3.163 | PF 5 hr bacterial load, Mean (E. coli AID#172 [3]; [7]): 4.56 | DAY 3 BLADDER, Median (E. coli DSA 443 ESBL; ESBL E. coli DSA 443, Meropenem 40 mg kg-1, bladder, median of n = 12): 3.32 | DAY 3 KIDNEY, Mean (E. coli DSA 443 ESBL; ESBL E. coli DSA 443, Meropenem 40 mg kg-1, kidney, mean of n = 12): 1.644 | DAY 3 KIDNEY, Median (E. coli DSA 443 ESBL; ESBL E. coli DSA 443, Meropenem 40 mg kg-1, kidney, median of n = 12): 1.4 | DAY 3 URINE, Mean (E. coli DSA 443 ESBL; ESBL E. coli DSA 443, Meropenem 40 mg kg-1, urine, mean of n = 11): 1.229 | DAY 3 URINE, Median (E. coli DSA 443 ESBL; ESBL E. coli DSA 443, Meropenem 40 mg kg-1, urine, median of n = 11): 1

CC(C)[C@@H]1NC(=O)[C@H](Cc2ccc(O)cc2)NC(=O)[C@H](Cc2c[nH]c3ccccc23)NC(=O)[C@@H](NC(=O)[C@H](Cc2ccccc2)NC(=O)CN)CSSC[C@@H](C(=O)N[C@@H](CC(N)=O)C(=O)O)NC(=O)[C@H](CCCNC(=N)N)NC(=O)[C@H](CCCNC(=N)N)NC(=O)[C@H](Cc2ccc(O)cc2)NC(=O)[C@@H]2CSSC[C@H](NC1=O)C(=O)N[C@@H](C)C(=O)N[C@@H](CCCNC(=N)N)C(=O)N[C@@H](CCCNC(=N)N)C(=O)N[C@@H](CC(N)=O)C(=O)NCC(=O)N[C@@H](C)C(=O)N[C@@H](CCCNC(=N)N)C(=O)N[C@@H](C(C)C)C(=O)N2 [AA139] (HELM PEPTIDE1{G.F.C.W.Y.V.C.A.R.R.N.G.A.R.V.C.Y.R.R.C.N}$PEPTIDE1,PEPTIDE1,3:R3-20:R3|PEPTIDE1,PEPTIDE1,7:R3-16:R3$$$V2.0)
ED50 in blood (E. coli AID#172 [3]; mouse, in vivo, iv): 1.55 mg/kg | ED50 in peritoneal fluid (E. coli AID#172 [3]; mouse, in vivo, iv): 1.85 mg/kg | ED50 in thigh (E. coli AID#172 [4]; mouse, in vivo, iv): 4.8 mg/kg | AUC(0-t) ([5]; Day 1 ELF): 39800 ng·h/mL | Cmax ([5]; Day 1 ELF): 8200 ng/mL | AUC(0-t) ([5]; Day 7 ELF): 137000 ng·h/mL | Cmax ([5]; Day 7 ELF): 42400 ng/mL | NOAEL in mice, aerosol inhalation ([5]; aerosol inhalation over 7 days): 20 mg kg^−1 per day | NOAEL at 168 h ([5]; mouse, in vivo, inhaled or intranasal): 20 mg/kg | AUC(0-t) ([5]; mouse, plasma, inhaled or intranasal, 20 mg/kg, AUC 0-t, Day 1 Plasma): 2600 ng·h/mL | AUC(0-t) ([5]; mouse, plasma, inhaled or intranasal, 20 mg/kg, AUC 0-t, Day 7 Plasma): 1400 ng·h/mL | Cmax ([5]; mouse, plasma, inhaled or intranasal, 20 mg/kg, Cmax, Day 1 Plasma): 950 ng/mL | Cmax ([5]; mouse, plasma, inhaled or intranasal, 20 mg/kg, Cmax, Day 7 Plasma): 470 ng/mL

polymyxin B [PolymyxinB, reference compound]
SPR response, Mean1 (DMPC) ([1]; 1uM): 28.3373 | SPR response, Mean1 (DMPC) ([1]; 10uM): 126.211 | Binding to DMPC with lipid A versus DMPC alone (SPR) [2]: Significant difference | SPR response, Difference (Mean1 - Mean2) ([2]; 1uM): -20.0727 | SPR response, Mean2 (10% lipid A-DMPC) ([2]; 1uM): 48.41 | SPR response, Difference (Mean1 - Mean2) ([2]; 10uM): -95.8227 | SPR response, Mean2 (10% lipid A-DMPC) ([2]; 10uM): 222.033 | Log reduction in thigh CFU compared to saline control (E. coli AID#172 [4]; 5 mg kg^−1, two i.v. doses): 3.13 log
